Experimental findings from patent US20030108872A1, “Genomics-assisted rapid identification of targets” (priority 2000, published 2003) are described below.

What all share (type): cell-based
One test relates to E. coli strain WO-153. Briefly: Genome-wide E. coli ORFmer overexpression rescue (OER) assay. Particulars: for PCR verification of OER clones: expected target gene: liquid microtiter assay, expected targets folA, murA, fabI; for PCR verification of OER clones: expected clone: two plate assay format (disk diffusion, gradient plate). Here is the method:
Over expression Rescue Assays. Over expression assays were conducted with the E. coli strain WO-153 described in Table 7. Construction of WO-0153. […] The asmB1 mutation is a G to A transition at position 628 in the 1pxC gene. […] The tolC gene encodes an outer membrane protein that acts as a channel for the acrAB efflux pumps (See for example, Fralick, J. 1996. J. Bacteriol. 178:5801-5805). […] WO-0153 was constructed as follows. The asmB1 mutation was introduced into a DNA fragment containing the 1pxC gene and 1 kb of the 5′ end of the secA gene by site directed mutagenesis of the 1pxC gene using standard methods. A kan^R resistance cassette flanked by FRT sites was introduced 60 bp downstream of the 1pxC gene. The linear DNA construct was introduced into electrocompetent and recombinogenic E. coli KM354 (pTP223) as described by Murphy (See for example, Murphy, 1998, J. Bacteriol. 180: 2063-71). Transformants were selected on LB agar containing kanamycin (35 mcg/ml) and screened for sensitivity to novobiocin (20 mcg/ml). The presence of the asmB1 mutation in clones with the expected phenotype was verified by DNA sequence analysis. The kanR gene flanked by FRT sites was then excised from the 1pxC-secA intergenic region using a previously described method (See for example, Cherepanove, P. P, and Wackernagel, W. 1995. Gene 158: 9-14.). […] 178:5138-5143; Fralick, J. (1996). J. Bacteriol. 178:5801-5805; Fralick, J. A., et al. (1994) J. Bacteriol. 176:6404-6406; and Cherepanove, P. P, et al., (1995) Gene 158:9-14. […] Plasmid library DNA was transformed into WO-153 by electroporation as described above. Cells were collected from transformation plates by scraping and were equalized to an optical density of 1.53 on a Beckman DU650 spectrophotometer([…]). Groups of five libraries were mixed and frozen in LB media plus 10% (vol/vol) glycerol by immersion in a dry-ice/ethanol bath for 5 minutes.
Over-expression assays were performed in liquid media in a microtiter format, in a gradient plate format, or in a disk-diffusion format. The protocol used for the microtiter format was similar to the protocol described above for the MIC assay. Aliquots of 5 library pools spanning the genome were thawed at room temperature and 200 ul of each was inoculated into its own 20 ml of Mueller Hinton media containing ampicillin at 200 ug/ml and anhydrous tetracycline inducer as appropriate. Typically, replicates were performed using a number of final inducer concentrations, ranging from 0 to 100 ng/ml. Following an adequate mixing, 50 ul of inoculated media was mixed with 50 ul of the test antibiotic in Nunc brand 96-well microtiterplates. Typically, each group of five libraries was mixed with a range of concentrations of antibiotic spanning the minimum inhibitory concentration (MIC) of the antibiotic. […] Columns may contain 10 different groups of libraries as well as null vector and no innoculum controls. After mixing inoculum plus media with antibiotic, well contents were mixed by pipetting and incubated at 37° C. for 16 to 20 hours. Optical density at 600 nm was measured using a Molecular Devices SpectraMAX 250 spectrophotometer. […] Contents of wells showing rescue were transferred to LB agar plates containing ampicillin at 100 ug/ml, and were spread to obtain single colonies. Alternately, it is possible to maintain selection for the antibiotic being assayed by including it in the agar plates at this point.
OER Assay using Disk diffusion and Gradient Plate Assay formats. In the Disk diffusion plate format, the 3 inocula (see below) were plated on MHB plates containing ampicillin (100 mcg/ml) and anhydrous tetracycline (a-tet, 100 ng/ml). Two paper disks (6 mm diameter) containing 10×and 20×MIC of the test antiobiotic were placed on the surface of the plate.
(In general: Agar diffusion results depend on both activity and mobility in agar.)

For test [1], the system named is cells in which murA is regulated by PBAD. Briefly: MIC by microbroth dilution in E. coli under-expressing murA. Particulars: for MIC with decreasing regulator (L-arabinose) level: FIG. 4; for sensitivity on under-expression of murA: FIG. 6. Here is the method: The wild-type gene murA, which encodes the enzyme UDP-N-acetylglucosamine enolpyruvate transferase, was knocked out in E. coli, and the gene was placed under ectopic expression in the yibD locus under regulation by PBAD with the regulator, L-arabinose.
(§1) Methods. […] IPTG was added to a final concentration of 0.1 mM and anhydrous-tetracycline was added to a final concentration of 100 ng/ml to the culture media for routine growth of GTC-EC#313 and GTC-EC#346, respectively.
(§2) The specificity and sensitivity of the resultant colonies to added drugs were followed by measuring the minimal inhibitory concentration (MIC) of trimethoprim, sulfamethozasone, phosphomycin and D-cycloserine at varying regulator levels. This was performed according to NCCLS (National Center for Clinical Laboratory Standards) recommendations(NCCLS, 1997, METHODS FOR DILUTION ANTIMICROBIAL SUSCEPTIBILITY TESTS FOR BACTERIA THAT GROW AEROBICALLY, 4th ed.; approved standard. NCCLS document M7-A4. NCCLS, Wayne, Pa.), in 100 μl volume in 96-well format, with serial two-fold dilutions of drug concentration.

For test [2], the system named is cells in which folA is regulated by PBAD, PLtetO-1, or Plac/ara-1. Briefly: MIC by microbroth dilution in E. coli under-expressing folA. To be noted: for MIC with decreasing regulator level: PLtetO-1 or Plac/ara-1, regulators L-arabinose, anhydrotetracycline, IPTG, FIG. 3. Here is the method: In another example, the wild-type native folA gene was knocked out, and a wild-type copy of the gene folA, which encodes the protein dihydrofolate reductase, was placed under ectopic expression in the yibD locus under regulation by PBAD with the regulator, L-arabinose. Dihydropteroate synthetase, the gene product of […], catalyzes the enzymatic reaction two steps before dihydrofolate reductase in the folate biosynthetic pathway.
as §1, §2
On the technique in general: Broth dilution looks for growth in wells or tubes with falling amounts of substance.

`C[C@@H]1O[C@@H]1P(=O)(O)O` [phosphomycin]: in the test on E. coli strain WO-153, the “PCR verification of OER clones: expected target gene” value is given as “expected target gene was identifed” and the “PCR verification of OER clones: expected clone” value is given as “expected clone was isolated”. In test [1], the “MIC with decreasing regulator (L-arabinose) level” value is given as “decreases” and the “sensitivity on under-expression of murA” value is on record as “hypersensitivity”. In addition, the “MIC with decreasing regulator level” value in test [2] was “relatively unchanged”.

For `COc1cc(Cc2cnc(N)nc2N)cc(OC)c1OC` [trimethoprim], in the test on E. coli strain WO-153, the “PCR verification of OER clones: expected target gene” value is listed as “expected target gene was identifed” and the “PCR verification of OER clones: expected clone” value is recorded as “expected clone was isolated”. In addition, in test [1], the “MIC with decreasing regulator (L-arabinose) level” value is recorded as “relatively unchanged” and the “sensitivity on under-expression of murA” value is listed as “not sensitive”. Further, the “MIC with decreasing regulator (L-arabinose) level” value in test [2] (FIG. 5) is recorded as “decreases”. For the same compound, the “MIC with decreasing regulator level” value in test [2] is reported as “decreases”.
